Test results as given in patent publication US12281108B2, “Pyrrolidinone derivatives as formyl peptide 2 receptor agonists” (BRISTOL-MYERS SQUIBB COMPANY, priority 2018, dated 2025).

The compounds below were run against T1, human FPR2 receptors (Homo sapiens, UniProt P25090) (assay: FPR2 cAMP assay in CHO cells overexpressing human FPR2 (HTRF)). Conditions: hFPR2 assay; potency bins; read-out: hFPR2 agonist activity EC50.
T1 sequence (P25090 1-351): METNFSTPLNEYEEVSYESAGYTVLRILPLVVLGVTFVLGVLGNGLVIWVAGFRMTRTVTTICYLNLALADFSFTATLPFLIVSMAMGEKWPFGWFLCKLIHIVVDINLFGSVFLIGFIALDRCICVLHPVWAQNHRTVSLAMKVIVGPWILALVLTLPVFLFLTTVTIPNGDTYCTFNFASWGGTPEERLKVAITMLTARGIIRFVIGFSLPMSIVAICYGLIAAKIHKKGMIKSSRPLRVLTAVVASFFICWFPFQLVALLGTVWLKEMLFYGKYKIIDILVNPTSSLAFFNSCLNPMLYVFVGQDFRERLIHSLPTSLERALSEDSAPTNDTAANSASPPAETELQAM
Format: cell-based
Text: N-formyl peptide receptors (FPRs) are a family of chemo attractant receptors that facilitate leukocyte response during inflammation. FPRs belong to the seven-transmembrane G protein-coupled receptor superfamily and are linked to inhibitory G-proteins (Gi). Three family members (FPR1, FPR2 and FPR3) have been identified in humans and are predominantly found in myeloid cells with varied distribution and have also been reported in multiple organs and tissues. After agonist binding, the FPRs activate a multitude of physiological pathways, such as intra cellular signaling transduction, Ca^2+ mobilization and transcription. The family interacts with a diverse set of ligands that includes proteins, polypeptides and fatty acid metabolites which activate both pro-inflammatory and pro-resolution downstream responses. FPR2 and FPR1 Cyclic Adenosine Monophosphate (cAMP) Assays were used to measure the in vitro activity of the compounds disclosed in this application.
FPR2 and FPR1 Cyclic Adenosine Monophosphate (cAMP) Assays. A mixture of forskolin (5 μM final for FPR2 or 10 μM final for FPR1) and IBMX (200 μM final) were added to 384-well Proxiplates (Perkin-Elmer) pre-dotted with test compounds in DMSO (1% final) at final concentrations in the range of 0.020 nM to 100 μM. Chinese Hamster Ovary cells (CHO) overexpressing human FPR1 or human FPR2 receptors were cultured in F-12 (Ham's) medium supplemented with 10% qualified FBS, 250 μg/ml zeocin and 300 μg/ml hygromycin (Life Technologies). Reactions were initiated by adding 2,000 human FPR2 cells per well or 4,000 human FPR1 cells per well in Dulbecco's PBS (with calcium and magnesium) (Life Technologies) supplemented with 0.1% BSA (Perkin-Elmer). The reaction mixtures were incubated for 30 min at room temperature. The level of intracellular cAMP was determined using the HTRF HiRange cAMP assay reagent kit (Cisbio) according to manufacturer's instruction. Solutions of cryptate conjugated anti-cAMP and d2 flurorophore-labelled cAMP were made in a supplied lysis buffer separately. Upon completion of the reaction, the cells were lysed with equal volume of the d2-cAMP solution and anti-cAMP solution. After a 1-h room temperature incubation, time-resolved fluorescence intensity was measured using the Envision (Perkin-Elmer) at 400 nm excitation and dual emission at 590 nm and 665 nm. A calibration curve was constructed with an external cAMP standard at concentrations ranging from 1 μM to 0.1 pM by plotting the fluorescent intensity ratio from 665 nm emission to the intensity from the 590 nm emission against cAMP concentrations. The potency and activity of a compound to inhibit cAMP production was then determined by fitting to a 4-parametric logistic equation from a plot of cAMP level versus compound concentrations.

EC50 [nM]	SMILES
150 to 1000	COc1cc(F)c([C@@H]2CNC(=O)[C@H]2Nc2nnc(-c3ccc(C)cc3)o2)c(F)c1 [Example 11, (3S,4R)-4-(2,6-difluoro-4-methoxyphenyl)-3-{[5-(4-methylphenyl)-1,3,4-oxadiazol-2-yl]amino}pyrrolidin-2-one]
150 to 1000	COc1cc(F)c([C@@H]2CNC(=O)[C@H]2Nc2nnc(-c3ccc(OC(F)F)cc3)o2)c(F)c1 [Example 37, (3S,4R)-4-(2,6-difluoro-4-methoxyphenyl)-3-({5-[4-(difluoromethoxy)phenyl]-1,3,4-oxadiazol-2-yl}amino)pyrrolidin-2-one]
40 to 150	COc1cc(F)c([C@@H]2CNC(=O)[C@H]2Nc2nnc(-c3ccc(Oc4cc(OC)ncn4)cc3)o2)c(F)c1 [Example 62, (3S,4R)-4-(2,6-difluoro-4-methoxyphenyl)-3-[(5-{4-[(6-methoxypyrimidin-4-yl)oxy]phenyl}-1,3,4-oxadiazol-2-yl)amino]pyrrolidin-2-one]
150 to 1000	COc1cc(F)c([C@@H]2CNC(=O)[C@H]2Nc2nnc(-c3ccc([S+]([O-])C(F)(F)F)cc3)o2)c(F)c1 (stereo partly drawn) [Example 26, (3S,4R)-4-(2,6-difluoro-4-methoxyphenyl)-3-{[5-(4-trifluoromethanesulfinylphenyl)-1,3,4-oxadiazol-2-yl]amino}pyrrolidin-2-one]
150 to 1000	COc1cc(F)c([C@@H]2CNC(=O)[C@H]2Nc2nnc(-c3ccc(C4CC4)cc3)o2)c(F)c1 [Example 38, (3S,4R)-3-{[5-(4-cyclopropylphenyl)-1,3,4-oxadiazol-2-yl]amino}-4-(2,6-difluoro-4-methoxyphenyl)pyrrolidin-2-one]
150 to 1000	COc1cc(F)c([C@@H]2CNC(=O)[C@H]2Nc2nnc(-c3ccc(-n4cccn4)cc3)o2)c(F)c1 [Example 13, (3S,4R)-4-(2,6-difluoro-4-methoxyphenyl)-3-({5-[4-(1H-pyrazol-1-yl)phenyl]-1,3,4-oxadiazol-2-yl}amino)pyrrolidin-2-one]
≤ 40	COc1cc(F)c([C@@H]2CNC(=O)[C@H]2Nc2nnc(-c3ccc(Cl)cc3)o2)c(F)c1 [Example 3, (3S,4R)-3-{[5-(4-chlorophenyl)-1,3,4-oxadiazol-2-yl]amino}-4-(2,6-difluoro-4-methoxyphenyl)pyrrolidin-2-one]
≤ 40	COc1cc(F)c([C@@H]2CNC(=O)[C@H]2Nc2nnc(-c3ccc(Cl)nc3)o2)c(F)c1 [Example 16, (3S,4R)-3-{[5-(6-chloropyridin-3-yl)-1,3,4-oxadiazol-2-yl]amino}-4-(2,6-difluoro-4-methoxyphenyl)pyrrolidin-2-one]
40 to 150	COc1cc(F)c([C@@H]2CNC(=O)[C@H]2Nc2nnc(-c3ccc(C(F)F)cc3)o2)c(F)c1 [Example 17, (3S,4R)-4-(2,6-difluoro-4-methoxyphenyl)-3-({5-[4-(difluoromethyl)phenyl]-1,3,4-oxadiazol-2-yl}amino)pyrrolidin-2-one]
150 to 1000	COc1cc(F)c([C@@H]2CNC(=O)[C@H]2Nc2nnc(-c3ccc(C(C)C)cc3)o2)c(F)c1 [Example 39, (3S,4R)-4-(2,6-difluoro-4-methoxyphenyl)-3-({5-[4-(propan-2-yl)phenyl]-1,3,4-oxadiazol-2-yl}amino)pyrrolidin-2-one]
≤ 40	COc1cc(F)c([C@@H]2CN(C)C(=O)[C@H]2Nc2nnc(-c3ccc(Cl)cc3)o2)c(F)c1 [Example 20, (3S,4R)-3-{[5-(4-chlorophenyl)-1,3,4-oxadiazol-2-yl]amino}-4-(2,6-difluoro-4-methoxyphenyl)-1-methylpyrrolidin-2-one]

Continued, compound first:

SMILES	EC50 [nM]
COc1cc(F)c([C@@H]2CNC(=O)[C@H]2Nc2nnc(-c3ccc(Oc4ccc(Cl)cn4)cc3)o2)c(F)c1 [Example 55, (3S,4R)-3-[(5-{4-[(5-chloropyridin-2-yl)oxy]phenyl}-1,3,4-oxadiazol-2-yl)amino]-4-(2,6-difluoro-4-methoxyphenyl)pyrrolidin-2-one]	≤ 40
COc1cc(F)c([C@@H]2CNC(=O)[C@H]2Nc2nnc(-c3ccc(Oc4cccc(OC)n4)cc3)o2)c(F)c1 [Example 67, (3S,4R)-4-(2,6-difluoro-4-methoxyphenyl)-3-[(5-{4-[(6-methoxypyridin-2-yl)oxy]phenyl}-1,3,4-oxadiazol-2-yl)amino]pyrrolidin-2-one]	150 to 1000
COc1cc(F)c([C@@H]2CNC(=O)[C@H]2Nc2nc3ccc(Cl)cc3o2)c(F)c1 [Example 1, (3S,4R)-3-[(6-chloro-1,3-benzoxazol-2-yl)amino]-4-(2,6-difluoro-4-methoxyphenyl)pyrrolidin-2-one]	150 to 1000
COc1cc(F)c([C@@H]2CNC(=O)[C@H]2Nc2nnc(C3CC3c3ccc(Cl)cc3F)o2)c(F)c1 (stereo partly drawn) [Example 46, (3S,4R)-3-({5-[2-(4-chloro-2-fluorophenyl)cyclopropyl]-1,3,4-oxadiazol-2-yl}amino)-4-(2,6-difluoro-4-methoxyphenyl)pyrrolidin-2-one]	≤ 40
COc1cc(F)c([C@@H]2CNC(=O)[C@H]2Nc2nnc(C(=O)NCCc3ccc(Cl)cc3)o2)c(F)c1 [Example 54, N-[2-(4-chlorophenyl)ethyl]-5-{[(3S,4R)-4-(2,6-difluoro-4-methoxyphenyl)-2-oxopyrrolidin-3-yl]amino}-1,3,4-oxadiazole-2-carboxamide]	150 to 1000
COc1cc(F)c([C@@H]2CNC(=O)[C@H]2Nc2nnc(-c3ccc(OC(F)(F)F)cc3)s2)c(F)c1 [Example 30, (3S,4R)-4-(2,6-difluoro-4-methoxyphenyl)-3-({5-[4-(trifluoromethoxy)phenyl]-1,3,4-thiadiazol-2-yl}amino)pyrrolidin-2-one]	40 to 150
COc1cc(F)c([C@@H]2CNC(=O)[C@H]2Nc2noc3cc(Cl)ccc23)c(F)c1 [Example 50, (3S,4R)-3-[(6-chloro-1,2-benzoxazol-3-yl)amino]-4-(2,6-difluoro-4-methoxyphenyl)pyrrolidin-2-one]	≤ 40
COc1cc(F)c([C@@H]2CNC(=O)[C@H]2Nc2nnc(-c3ccc(Oc4ncccc4F)cc3)o2)c(F)c1 [Example 61, (3S,4R)-4-(2,6-difluoro-4-methoxyphenyl)-3-[(5-{4-[(3-fluoropyridin-2-yl)oxy]phenyl}-1,3,4-oxadiazol-2-yl)amino]pyrrolidin-2-one]	40 to 150
COc1cc(F)c([C@@H]2CNC(=O)[C@H]2Nc2nnc(-c3ccc(Oc4cnc(Cl)cn4)cc3)o2)c(F)c1 [Example 60, (3S,4R)-3-[(5-{4-[(5-chloropyrazin-2-yl)oxy]phenyl}-1,3,4-oxadiazol-2-yl)amino]-4-(2,6-difluoro-4-methoxyphenyl)pyrrolidin-2-one]	40 to 150
COc1cc(F)c([C@@H]2CNC(=O)[C@H]2Nc2nnc(C3CC3c3cccc(Cl)c3)o2)c(F)c1 (stereo partly drawn) [Example 45, (3S,4R)-3-({5-[2-(3-chlorophenyl)cyclopropyl]-1,3,4-oxadiazol-2-yl}amino)-4-(2,6-difluoro-4-methoxyphenyl)pyrrolidin-2-one]	≤ 40
COc1cc(F)c([C@@H]2CNC(=O)[C@H]2Nc2nnc(-c3ccc(Oc4ccc(C#N)cc4)cc3)o2)c(F)c1 [Example 57, 4-[4-(5-{[(3S,4R)-4-(2,6-difluoro-4-methoxyphenyl)-2-oxopyrrolidin-3-yl]amino}-1,3,4-oxadiazol-2-yl)phenoxy]benzonitrile]	40 to 150
CCCCOc1ccc(-c2nnc(N[C@@H]3C(=O)NC[C@H]3c3c(F)cc(OC)cc3F)o2)cc1 [Example 34, (3S,4R)-3-{[5-(4-butoxyphenyl)-1,3,4-oxadiazol-2-yl]amino}-4-(2,6-difluoro-4-methoxyphenyl)pyrrolidin-2-one]	40 to 150
COc1cc(F)c([C@@H]2CNC(=O)[C@H]2Nc2nnc(-c3ccc(Oc4cc(Cl)ccn4)cc3)o2)c(F)c1 [Example 68, (3S,4R)-3-[(5-{4-[(4-chloropyridin-2-yl)oxy]phenyl}-1,3,4-oxadiazol-2-yl)amino]-4-(2,6-difluoro-4-methoxyphenyl)pyrrolidin-2-one]	≤ 40
